{"source": "patent US6288091A", "about": "“Antiherpes virus compounds and methods for their preparation and use” (Boehringer Ingelheim Ltd., priority 1999, dated 2001)", "key": {"HCMV (strain AD169) [1]": {"tested_on": "HCMV (strain AD169)", "assay": "Inhibition of HCMV replication, ELISA assay (Hs-68 cells)", "assay_type": "cell-based, Human Cytomegalovirus (HCMV)", "conditions": "read-out: ELISA CMV EC50", "how_it_was_run": "(§1)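 EC50 derived from % inhibition of viral replication, read as p28 late-protein ELISA signal (mAb UL99, peroxidase/OPD, 450 nm) on fixed cells. Read-out came 8 days post-infection at 37 °C in DMEM with 5% FBS plus compound, after 2 h adsorption of AD169 at MOI 0.01 PFU/cell onto near-confluent Hs-68 cells.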"}, "HSV-1 helicase-primase": {"molecular_target": "T1, HSV-1 helicase-primase (Human herpesvirus 1, UniProt P10189+P10236)", "T1 construct": "made in house; host or cells: Sf21 insect cells triply infected with recombinant baculoviruses (UL5, UL8, UL52)", "T1 sequence (P10192 whole entry)": "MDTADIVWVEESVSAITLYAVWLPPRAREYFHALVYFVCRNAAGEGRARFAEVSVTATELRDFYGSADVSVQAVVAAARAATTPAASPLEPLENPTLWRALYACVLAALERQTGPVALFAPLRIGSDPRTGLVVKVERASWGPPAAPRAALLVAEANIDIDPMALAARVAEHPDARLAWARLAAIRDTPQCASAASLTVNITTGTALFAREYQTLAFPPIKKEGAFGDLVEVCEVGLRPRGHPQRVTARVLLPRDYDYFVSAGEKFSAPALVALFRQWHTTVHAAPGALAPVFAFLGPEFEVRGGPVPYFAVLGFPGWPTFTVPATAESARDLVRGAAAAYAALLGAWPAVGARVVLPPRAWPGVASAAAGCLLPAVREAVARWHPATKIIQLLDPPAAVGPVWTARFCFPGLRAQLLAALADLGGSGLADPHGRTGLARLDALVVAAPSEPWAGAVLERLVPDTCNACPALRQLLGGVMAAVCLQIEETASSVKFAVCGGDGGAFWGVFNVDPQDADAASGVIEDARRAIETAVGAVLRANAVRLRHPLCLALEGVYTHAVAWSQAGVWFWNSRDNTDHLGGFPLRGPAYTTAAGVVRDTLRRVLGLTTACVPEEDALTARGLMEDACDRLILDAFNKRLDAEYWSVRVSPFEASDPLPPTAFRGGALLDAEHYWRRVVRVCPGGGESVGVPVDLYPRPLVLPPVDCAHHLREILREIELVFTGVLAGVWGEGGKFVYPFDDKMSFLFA", "T1 sequence (P10236 whole entry)": "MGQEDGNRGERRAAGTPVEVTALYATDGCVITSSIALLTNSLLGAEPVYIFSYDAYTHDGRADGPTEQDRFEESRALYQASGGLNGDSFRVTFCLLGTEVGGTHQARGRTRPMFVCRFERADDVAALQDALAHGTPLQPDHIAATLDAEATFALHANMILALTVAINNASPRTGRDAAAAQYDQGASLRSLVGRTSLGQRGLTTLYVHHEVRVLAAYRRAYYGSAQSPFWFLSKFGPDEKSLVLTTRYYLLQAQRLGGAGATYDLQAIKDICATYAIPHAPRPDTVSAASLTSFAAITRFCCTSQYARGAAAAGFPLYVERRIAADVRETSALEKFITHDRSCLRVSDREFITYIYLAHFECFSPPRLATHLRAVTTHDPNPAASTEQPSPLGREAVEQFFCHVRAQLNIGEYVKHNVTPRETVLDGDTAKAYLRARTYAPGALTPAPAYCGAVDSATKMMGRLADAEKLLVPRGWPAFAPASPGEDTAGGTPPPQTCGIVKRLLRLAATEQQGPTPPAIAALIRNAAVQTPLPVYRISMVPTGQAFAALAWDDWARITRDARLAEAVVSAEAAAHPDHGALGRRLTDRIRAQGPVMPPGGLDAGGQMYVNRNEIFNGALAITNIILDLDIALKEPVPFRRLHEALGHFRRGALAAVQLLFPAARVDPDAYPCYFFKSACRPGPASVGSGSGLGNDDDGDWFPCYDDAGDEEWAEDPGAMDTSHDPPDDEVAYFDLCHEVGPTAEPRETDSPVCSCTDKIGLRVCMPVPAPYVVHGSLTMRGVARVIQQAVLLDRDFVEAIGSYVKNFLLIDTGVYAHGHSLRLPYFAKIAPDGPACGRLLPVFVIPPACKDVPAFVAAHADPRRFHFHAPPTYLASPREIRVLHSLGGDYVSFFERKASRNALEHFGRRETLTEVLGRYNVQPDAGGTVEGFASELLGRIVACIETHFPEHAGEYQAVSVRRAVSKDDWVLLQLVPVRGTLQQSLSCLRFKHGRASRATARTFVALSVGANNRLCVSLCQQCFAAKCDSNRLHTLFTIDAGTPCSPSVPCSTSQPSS", "T1 sequence (P10189 whole entry)": "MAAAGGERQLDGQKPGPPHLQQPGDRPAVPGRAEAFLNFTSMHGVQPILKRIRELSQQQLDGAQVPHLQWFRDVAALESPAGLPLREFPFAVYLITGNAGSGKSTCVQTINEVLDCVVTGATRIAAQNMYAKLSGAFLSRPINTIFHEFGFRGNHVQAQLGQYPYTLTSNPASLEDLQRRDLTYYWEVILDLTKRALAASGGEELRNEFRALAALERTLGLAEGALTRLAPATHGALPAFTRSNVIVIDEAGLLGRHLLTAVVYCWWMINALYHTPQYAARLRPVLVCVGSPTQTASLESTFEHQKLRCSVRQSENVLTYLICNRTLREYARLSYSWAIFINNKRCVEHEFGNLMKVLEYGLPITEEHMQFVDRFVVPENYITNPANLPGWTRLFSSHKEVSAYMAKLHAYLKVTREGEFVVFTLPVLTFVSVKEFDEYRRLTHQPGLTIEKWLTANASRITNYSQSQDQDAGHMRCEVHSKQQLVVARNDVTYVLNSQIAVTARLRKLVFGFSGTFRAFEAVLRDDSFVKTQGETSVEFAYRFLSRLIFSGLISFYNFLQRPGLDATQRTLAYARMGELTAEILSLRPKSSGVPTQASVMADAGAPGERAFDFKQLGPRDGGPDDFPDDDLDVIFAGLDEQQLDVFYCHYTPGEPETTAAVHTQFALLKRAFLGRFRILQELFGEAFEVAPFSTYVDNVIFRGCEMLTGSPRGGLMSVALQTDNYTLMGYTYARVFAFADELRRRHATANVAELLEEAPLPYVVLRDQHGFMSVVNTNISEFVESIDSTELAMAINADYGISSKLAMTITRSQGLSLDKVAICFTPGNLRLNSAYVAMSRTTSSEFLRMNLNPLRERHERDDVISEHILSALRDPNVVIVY", "assay": "HSV-1 DNA-dependent ATPase assay (inhibition of HSV-1 helicase-primase)", "assay_type": "biochemical", "how_it_was_run": "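ATP hydrolysis was measured as inorganic phosphate (malachite green/molybdate, 650 nm) after 20 min at 34°. Reaction: 3 μg/mL purified Sf21-expressed UL5/UL8/UL52 helicase-primase, 25 μM single-stranded M13 DNA hybridized to 68-mer, 4 mM ATP, pH 7.5 HEPES buffer, 3.3% DMSO. Net absorbance change with and without inhibitor gave DNA-dependent ATPase activity.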"}, "HCMV (strain AD169) [2]": {"tested_on": "HCMV (strain AD169)", "assay": "Inhibition of HCMV replication, plaque reduction assay (PRA, Hs-68 cells)", "assay_type": "cell-based, Human Cytomegalovirus (HCMV)", "conditions": "read-out: PRA CMV EC50", "how_it_was_run": "(§2)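 Hs-68 monolayers (80–90% confluent) were infected with ~50 PFU HCMV AD169 for 2 h at 37°, then given compound in DMEM/5% inactivated FBS, refreshed after 4 days and kept 4 more days. Plaques were counted after formaldehyde fixation and crystal violet staining. EC50 derives from percent plaque reduction versus untreated wells.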"}, "[3]": {"assay": "Inhibition of HCMV replication, plaque reduction assay (PRA, Hs-68 cells)", "assay_type": "cell-based, Human Cytomegalovirus (HCMV)", "conditions": "human", "how_it_was_run": "as §2"}, "HSV-1 strain F or KOS": {"tested_on": "HSV-1 strain F or KOS", "assay": "Inhibition of herpes simplex virus (HSV-1) replication in cell culture (BHK-21 cells, glycoprotein C ELISA)", "assay_type": "cell-based", "how_it_was_run": "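Replication readout: ELISA for HSV-1 late glycoprotein C (mAb C11, peroxidase-OPD, 450 nm) on glutaraldehyde-fixed cells. Monolayers (~50,000 cells/well) were infected with strain F or KOS (MOI 0.05 PFU/cell), then incubated 24 h at 37° with compound in 2% FBS α-MEM. EC50 derived from % inhibition.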"}, "[4]": {"assay": "Inhibition of HCMV replication, ELISA assay (Hs-68 cells)", "assay_type": "cell-based, Human Cytomegalovirus (HCMV)", "conditions": "human, read-out: Cytotoxic at this concentration (footnote *, ELISA CMV column)", "how_it_was_run": "as §1"}, "[5]": {"tested_on": "HSV-1 acyclovir-resistant mutant strain dlsptk", "assay": "Acyclovir-resistant HSV-1 cutaneous infection in immunodeficient nu/nu mice, strain dlsptk", "assay_type": "in vivo, female nu/nu mice", "conditions": "oral gavage 100 mg/kg/day, tid for 10 days; strain dlsptk (FIG. 3)", "experimental": "(§3) Animals were cutaneously inoculated with 10^7 PFU pf HSV-1 acyclovir resistant mutant viruses. The resulting cutaneous lesions were scored according to a subjective scoring system. The compound of Group 1 (Entry No. 29 in table 1) was administered orally (gavage) in an acidified vehicle (0.033 N aqueous HCl, tid for 10 days). Animals were similarly treated with acyclovir in 0.033 N aqueous HCl or only with the vehicle (0.033 N aqueous HCl). […] The dose-dependent effect of treatment with Entry No. 29 at 25 mg/kg/day (-.diamond-solid.-), 50 mg/kg/day (-.tangle-solidup.-), 75 mg/kg/day (-.quadrature.-), 100 mg/kg/day (-.circle-solid.-) or 125 mg/kg/day (-.box-solid.-), compared to treatment with vehicle alone (-.smallcircle.-), is shown in FIG. 2. The ED50 of Entry No. 29 was about 60 mg/kg/day. Similar experiments were done using the HSV-1 acyclovir-resistant mutant strain dlsptk (FIGS. 3 and 4). […] The dose-dependent effect of treatment with Entry No. 29 at 25 mg/kg/day (-.diamond-solid.-), 50 mg/kg/day (-.tangle-solidup.-), 75 mg/kg/day (-.quadrature.-), 100 mg/kg/day (-.circle-solid.-) or 125 mg/kg/day (-.box-solid.-), compared to treatment with vehicle alone (-.smallcircle.-), is shown in FIG. 4. […]"}, "[6]": {"tested_on": "HSV-1 acyclovir-resistant mutant strain PAA^r 5", "assay": "Acyclovir-resistant HSV-1 cutaneous infection in immunodeficient nu/nu mice, strain PAAr 5", "assay_type": "in vivo, female nu/nu mice", "experimental": "as §3"}, "HSV-2 HG-52": {"tested_on": "HSV-2 HG-52", "assay": "Mouse genital model, vaginal HSV-2 infection, oral administration", "assay_type": "in vivo, Swiss Webster mouse", "conditions": "Human alphaherpesvirus 2, 3 h, Group 1 Table 1 entries, commencing three hours post infection, read-out: ED50, reduction of viral pathology", "experimental": "Antiviral activity for Group 1 compounds was also observed in the mouse genital model of R. W. Sidwell et al., supra. Vaginal HSV-2 infection in the Swiss Webster mouse was initiated by vaginal irritation and instillation of HSV-2 (HSV-2 HG-52, 1×10^7 PFU). Viral pathology was measured as described above."}, "[7]": {"conditions": "Human betaherpesvirus 5, AD169, Hs68, Group 1 Table 1 entries"}, "[8]": {"conditions": "Human betaherpesvirus 5, AD169, Hs68, Group 1 Table 2 entries"}, "[9]": {"conditions": "Human betaherpesvirus 5, AD169, Hs68, Group 2 Table 2 entries"}}, "data": [{"smiles": "Cc1ccccc1CN(CC(=O)Nc1ccc(-c2csc(N)n2)cc1)C(=O)Cc1ccccn1", "note": "[Example 127]", "values": [{"measurement": "EC50", "setting": "HCMV (strain AD169) [1]; [7]", "value": 8.8, "unit": "µM"}, {"measurement": "IC50", "setting": "HSV-1 helicase-primase; Group 1 Table 1 entries", "value": 0.99, "unit": "µM"}, {"measurement": "EC50", "setting": "HCMV (strain AD169) [2]; [7]", "value": 25, "unit": "µM"}, {"measurement": "MCC at 192 h", "setting": "[3]; Group 1 Table 1 entries, read-out: Cytotoxic at this concentration (footnote *, PRA CMV)", "value": 25, "unit": "µM"}]}, {"smiles": "CC(C)(C)OC(=O)N(CCC(=O)Nc1ccc(-c2csc(N)n2)cc1)C1CCc2ccccc21", "note": "(stereo not shown) [Example 13]", "values": [{"measurement": "EC50", "setting": "HCMV (strain AD169) [1]; [8]", "value": 37, "unit": "µM"}, {"measurement": "EC50", "setting": "HSV-1 strain F or KOS; Human alphaherpesvirus 1, BHK-21, Group 1 Table 2 entries", "value": 3.4, "unit": "µM"}, {"measurement": "EC50", "setting": "HCMV (strain AD169) [2]; [8]", "value": 9, "unit": "µM"}, {"measurement": "MCC at 192 h", "setting": "[3]; Group 1 Table 2 entries, read-out: Cytotoxic at this concentration (footnote, PRA CMV)", "value": 9, "unit": "µM"}]}, {"smiles": "CCCC(CCC)N(CC(=O)Nc1ccc(-c2csc(N)n2)cc1)C(=O)OC(C)(C)C", "note": "[Example 111]", "values": [{"measurement": "EC50", "setting": "HCMV (strain AD169) [1]; [7]", "value": 4, "unit": "µM"}, {"measurement": "MCC at 192 h", "setting": "[4]; Group 1 Table 1 entries", "value": 4, "unit": "µM"}, {"measurement": "IC50", "setting": "HSV-1 helicase-primase; Group 1 Table 1 entries", "value": 0.37, "unit": "µM"}, {"measurement": "EC50", "setting": "HSV-1 strain F or KOS; Human alphaherpesvirus 1, BHK-21, Group 1 Table 1 entries", "value": 0.24, "unit": "µM"}]}, {"smiles": "Nc1nc(-c2ccc(NC(=O)[C@H](Cc3ccccc3)NC(=O)C3CCCCC3)cc2)cs1", "note": "[Example 1]", "values": [{"measurement": "EC50", "setting": "HCMV (strain AD169) [1]; Human betaherpesvirus 5, AD169, Hs68, Group 1 Table 5 entries", "value": 14, "unit": "µM"}, {"measurement": "MCC at 192 h", "setting": "[4]; Group 1 Table 5 entries", "value": 14, "unit": "µM"}, {"measurement": "IC50", "setting": "HSV-1 helicase-primase; Group 1 Table 5 entries", "value": 0.052, "unit": "µM"}, {"measurement": "EC50", "setting": "HSV-1 strain F or KOS; Human alphaherpesvirus 1, BHK-21, Group 1 Table 5 entries", "value": 0.079, "unit": "µM"}]}, {"smiles": "Nc1nc(-c2ccc(NC(=O)C(=O)N(Cc3ccccc3)Cc3ccccc3)cc2)cs1", "note": "[Example 2]", "values": [{"measurement": "EC50", "setting": "HCMV (strain AD169) [1]; [9]", "value": 10, "unit": "µM"}, {"measurement": "EC50", "setting": "HSV-1 strain F or KOS; Human alphaherpesvirus 1, BHK-21, Group 2 Table 2 entries", "value": 0.77, "unit": "µM"}, {"measurement": "EC50", "setting": "HCMV (strain AD169) [2]; [9]", "value": 12, "unit": "µM"}, {"measurement": "MCC at 192 h", "setting": "[3]; Group 2 Table 2 entries, read-out: Cytotoxic at this concentration (footnote *, PRA CMV)", "value": 12, "unit": "µM"}]}, {"smiles": "Nc1nc2c(ncn2COCCO)c(=O)[nH]1", "note": "[acyclovir, reference compound]", "values": [{"measurement": "effect on cutaneous lesions", "setting": "[5]", "value": "no effect on cutaneous lesions"}, {"measurement": "effect on cutaneous lesions", "setting": "[6]; oral gavage 100 mg/kg/day, tid for 10 days, strain PAAr 5 (FIG. 1)", "value": "no effect on cutaneous lesions"}]}, {"smiles": "Nc1nc(-c2ccc(NC(=O)CN(Cc3ccccc3)C(=O)c3ccncc3)cc2)cs1", "note": "[Entry 29]", "values": [{"measurement": "ED50", "setting": "HSV-2 HG-52", "value": 60, "unit": "mg/kg"}, {"measurement": "ED50", "setting": "[6]; Human alphaherpesvirus 1, po, 240 h, read-out: ED50, cutaneous lesions", "value": "~60", "unit": "mg/kg"}]}, {"smiles": "Nc1nc(-c2ccc(NC(=O)NCCc3ccccn3)cc2)cs1", "note": "[Example 3]", "values": [{"measurement": "IC50", "setting": "HSV-1 helicase-primase; Group 2 Table 1 entries", "value": 5.2, "unit": "µM"}, {"measurement": "EC50", "setting": "HSV-1 strain F or KOS; Human alphaherpesvirus 1, BHK-21, Group 2 Table 1 entries", "value": 3.6, "unit": "µM"}, {"measurement": "EC50", "setting": "HCMV (strain AD169) [2]; Human betaherpesvirus 5, AD169, Hs68, Group 2 Table 1 entries", "value": "> 93", "unit": "µM"}, {"measurement": "MCC at 192 h", "setting": "[3]; Group 2 Table 1 entries, read-out: Cytotoxic at this concentration (footnote *, PRA CMV)", "value": 93, "unit": "µM"}]}]}
